Experimental data as given in PMC3914206.

Legend:
Assay type in all cases: binding
panel of 442 kinases [1] = target: T1, panel of 442 kinases (Homo sapiens, UniProt Q86Y07); settings: kinase VRK2; compound concentration 10 µM
T1 construct: purchased KINOMEscan
Excerpt: (§1) We assessed the selectivity of members of this scaffold using the KINOMEscan methodology across a near comprehensive panel of 442 kinases [[18,27]].

panel of 442 kinases [2] = target: T2, panel of 442 kinases (Homo sapiens, UniProt P21709); settings: Compound Concentration 10 µM
T2 construct: purchased KINOMEscan
T2 sequence (P21709 26-976): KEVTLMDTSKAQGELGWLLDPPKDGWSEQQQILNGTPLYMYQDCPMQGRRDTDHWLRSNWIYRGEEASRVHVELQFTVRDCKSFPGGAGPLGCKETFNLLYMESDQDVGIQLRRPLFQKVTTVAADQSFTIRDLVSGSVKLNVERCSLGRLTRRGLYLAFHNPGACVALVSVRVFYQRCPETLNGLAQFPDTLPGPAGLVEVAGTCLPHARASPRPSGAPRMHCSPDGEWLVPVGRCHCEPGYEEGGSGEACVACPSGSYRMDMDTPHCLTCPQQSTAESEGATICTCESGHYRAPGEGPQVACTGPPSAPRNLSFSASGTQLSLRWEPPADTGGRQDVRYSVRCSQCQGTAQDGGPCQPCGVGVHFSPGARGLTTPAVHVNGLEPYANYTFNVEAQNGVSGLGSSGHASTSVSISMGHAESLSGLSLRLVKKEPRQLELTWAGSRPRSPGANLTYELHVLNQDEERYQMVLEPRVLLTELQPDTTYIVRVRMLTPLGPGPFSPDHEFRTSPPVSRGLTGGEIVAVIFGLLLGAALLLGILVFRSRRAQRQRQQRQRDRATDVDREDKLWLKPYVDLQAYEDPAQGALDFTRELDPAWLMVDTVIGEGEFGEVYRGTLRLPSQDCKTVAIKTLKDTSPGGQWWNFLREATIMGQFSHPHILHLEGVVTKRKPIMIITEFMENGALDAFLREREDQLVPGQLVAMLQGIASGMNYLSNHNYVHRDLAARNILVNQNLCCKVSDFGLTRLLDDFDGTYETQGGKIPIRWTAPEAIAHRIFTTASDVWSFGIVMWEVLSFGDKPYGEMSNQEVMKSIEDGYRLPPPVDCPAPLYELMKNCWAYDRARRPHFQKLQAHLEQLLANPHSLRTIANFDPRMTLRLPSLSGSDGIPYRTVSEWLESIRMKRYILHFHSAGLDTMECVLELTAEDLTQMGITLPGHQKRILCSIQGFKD
Excerpt: as §1

panel of 442 kinases [3] = target: T3, panel of 442 kinases (Homo sapiens, UniProt P42684); settings: Compound Concentration 10 µM
T3 construct: purchased KINOMEscan
Excerpt: as §1

T3 sequence (P42684 whole entry): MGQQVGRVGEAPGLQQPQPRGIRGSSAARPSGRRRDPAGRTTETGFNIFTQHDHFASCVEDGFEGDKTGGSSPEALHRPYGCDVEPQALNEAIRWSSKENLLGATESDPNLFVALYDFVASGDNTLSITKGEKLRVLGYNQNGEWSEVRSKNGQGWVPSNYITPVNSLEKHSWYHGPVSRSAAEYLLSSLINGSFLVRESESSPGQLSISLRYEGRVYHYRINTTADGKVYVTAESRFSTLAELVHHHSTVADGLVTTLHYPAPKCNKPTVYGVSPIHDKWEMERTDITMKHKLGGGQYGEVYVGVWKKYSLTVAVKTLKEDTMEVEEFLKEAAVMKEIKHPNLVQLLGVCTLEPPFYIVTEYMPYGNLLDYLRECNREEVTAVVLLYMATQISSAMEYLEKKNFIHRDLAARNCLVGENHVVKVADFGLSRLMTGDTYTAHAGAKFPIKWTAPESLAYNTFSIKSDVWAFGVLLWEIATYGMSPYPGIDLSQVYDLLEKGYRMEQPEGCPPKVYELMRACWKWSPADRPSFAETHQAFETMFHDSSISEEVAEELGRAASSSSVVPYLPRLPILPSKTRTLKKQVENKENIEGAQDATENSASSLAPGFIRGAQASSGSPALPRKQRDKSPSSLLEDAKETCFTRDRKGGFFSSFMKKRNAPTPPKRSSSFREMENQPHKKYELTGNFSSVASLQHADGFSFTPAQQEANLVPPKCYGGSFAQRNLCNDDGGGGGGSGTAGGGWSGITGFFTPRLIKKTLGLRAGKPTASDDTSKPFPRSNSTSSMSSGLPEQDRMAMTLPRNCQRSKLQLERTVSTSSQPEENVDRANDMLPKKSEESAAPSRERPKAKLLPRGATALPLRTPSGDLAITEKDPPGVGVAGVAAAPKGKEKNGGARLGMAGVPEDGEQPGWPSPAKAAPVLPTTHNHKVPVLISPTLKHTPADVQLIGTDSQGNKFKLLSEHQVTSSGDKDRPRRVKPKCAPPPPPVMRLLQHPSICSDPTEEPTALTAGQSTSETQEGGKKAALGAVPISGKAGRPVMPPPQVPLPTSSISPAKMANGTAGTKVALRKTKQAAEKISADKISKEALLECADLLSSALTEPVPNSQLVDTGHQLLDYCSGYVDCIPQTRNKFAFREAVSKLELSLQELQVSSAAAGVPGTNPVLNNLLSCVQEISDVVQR
T1 sequence (Q86Y07 whole entry): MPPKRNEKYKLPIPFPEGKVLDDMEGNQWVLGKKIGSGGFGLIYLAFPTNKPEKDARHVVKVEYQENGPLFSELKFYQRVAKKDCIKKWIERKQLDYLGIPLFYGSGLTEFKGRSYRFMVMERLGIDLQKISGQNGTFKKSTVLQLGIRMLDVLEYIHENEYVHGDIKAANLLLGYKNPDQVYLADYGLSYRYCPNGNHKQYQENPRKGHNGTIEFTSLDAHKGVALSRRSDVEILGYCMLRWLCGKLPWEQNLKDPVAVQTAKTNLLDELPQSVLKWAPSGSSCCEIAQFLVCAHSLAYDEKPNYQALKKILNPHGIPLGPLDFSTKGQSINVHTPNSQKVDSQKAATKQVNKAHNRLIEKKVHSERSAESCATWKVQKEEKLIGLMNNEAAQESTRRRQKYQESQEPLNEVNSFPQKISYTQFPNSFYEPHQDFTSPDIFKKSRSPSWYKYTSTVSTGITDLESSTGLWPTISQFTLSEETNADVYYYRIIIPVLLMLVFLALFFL

Compound: COc1cc(C(=O)N2CCC(N3CCN(C)CC3)CC2)ccc1Nc1ncc2c(n1)N1CCc3cccc(c31)C(=O)N2C [Compound 24]
- % Ctrl, VRK2 (panel of 442 kinases [1]): 100 % Ctrl

Compound: CCOc1cc(C(=O)N2CCC(N3CCN(C)CC3)CC2)ccc1Nc1ncc2c(n1)N(C1CCCC1)c1ccccc1C(=O)N2C [Compound 26]
- KINOMEscan: EPHA1 (panel of 442 kinases [2]): 98
- KINOMEscan: ABL2 (panel of 442 kinases [3]): 100
- % Ctrl, VRK2 (panel of 442 kinases [1]): 82 % Ctrl

Compound: COc1cc(C(=O)N2CCC(N3CCN(C)CC3)CC2)ccc1Nc1ncc2c(n1)N(C1CCCC1)c1ccccc1C(=O)N2C [Compound 25, 11-cyclopentyl-2-((2-methoxy-4-(4-(4-methylpiperazin-1-yl)piperidine-1-carbonyl)phenyl)amino)-5-methyl-5H-benzo[e]pyrimido[5,4-b][1,4]diazepin-6(11H)-one]
- KINOMEscan: EPHA1 (panel of 442 kinases [2]): 100
- KINOMEscan: ABL2 (panel of 442 kinases [3]): 100
- % Ctrl, VRK2 (panel of 442 kinases [1]): 100 % Ctrl

Compound: COc1cc(C(=O)N2CCC(N3CCN(C)CC3)CC2)ccc1Nc1ncc2c(n1)N(C)c1ccccc1C(=O)N2C [15 (LRRK2-IN-1)]
- KINOMEscan: EPHA1 (panel of 442 kinases [2]): 100
- KINOMEscan: ABL2 (panel of 442 kinases [3]): 97
- % Ctrl, VRK2 (panel of 442 kinases [1]): 99 % Ctrl
